IC50 and Ki data for 9 compounds are collected here from BindingDB's records for doi:10.1016/S0960-894X(00)80020-7 (1993).

Experiment [1] deals with Thymidine kinase (Human herpesvirus 1). The experiment in a line: Inhibition of HSV-1 Thymidine kinase.
Experiment [2] shares this target. Nature of the experiment: Binding affinity against HSV-1 Thymidine kinase.

pIC50, pKi: −log10 of the molar value. A value given as a limit tells only on which side of the number the result lay.

As for `CCO[C@H]1O[C@@H](n2cc(C)c(=O)[nH]c2=O)C[C@@H]1O` [1-((2R,4S,5S)-5-Ethoxy-4-hydroxy-tetrahydro-furan-2-yl)-5-methyl-1H-pyrimidine-2,4-dione], the negative logarithm of the IC50 (pIC50) (usually the IC50 on a negative log10 scale, so that one unit is a factor of ten) in experiment [1] was 4.30. `Cc1cn([C@H]2C[C@@H](O)[C@H](OC(C)(C)C)O2)c(=O)[nH]c1=O` [1-((2R,4R,5R)-5-tert-Butoxy-4-hydroxy-tetrahydro-furan-2-yl)-5-methyl-1H-pyrimidine-2,4-dione]: the pIC50 in experiment [1] was below 4.30. The same measure, in the same setting: in the case of `Cc1cn([C@H]2C[C@@H](O)[C@H](OCCCc3ccccc3)O2)c(=O)[nH]c1=O` [1-[(2R,4R,5R)-4-Hydroxy-5-(3-phenyl-propoxy)-tetrahydro-furan-2-yl]-5-methyl-1H-pyrimidine-2,4-dione] it was below 4.30; in that of `CCCO[C@H]1O[C@@H](n2cc(C)c(=O)[nH]c2=O)C[C@@H]1O` [1-((2R,4S,5S)-4-Hydroxy-5-propoxy-tetrahydro-furan-2-yl)-5-methyl-1H-pyrimidine-2,4-dione], below 4.30; in that of `CCO[C@@H]1O[C@@H](n2cc(C)c(=O)[nH]c2=O)C[C@H]1O` [1-((2R,4R,5R)-5-Ethoxy-4-hydroxy-tetrahydro-furan-2-yl)-5-methyl-1H-pyrimidine-2,4-dione], below 4.30. `CCCO[C@@H]1O[C@@H](n2cc(C)c(=O)[nH]c2=O)C[C@H]1O` [1-((2R,4R,5R)-4-Hydroxy-5-propoxy-tetrahydro-furan-2-yl)-5-methyl-1H-pyrimidine-2,4-dione]: the pIC50 in experiment [1] was below 4.30. Take `C#C[C@H]1O[C@@H](n2cc(C)c(=O)[nH]c2=O)C[C@@H]1O` [1-((2R,4S,5R)-5-Ethynyl-4-hydroxy-tetrahydro-furan-2-yl)-5-methyl-1H-pyrimidine-2,4-dione]: the pKi (commonly −log10 of the Ki, conventionally taken in molar units) in experiment [2] was 5.70. This compound showed a pIC50 in experiment [1] of 5.52. On the same counts, the results for `Cc1cn([C@H]2C[C@H](O)[C@@H](OCCCc3ccccc3)O2)c(=O)[nH]c1=O` [1-[(2R,4S,5S)-4-Hydroxy-5-(3-phenyl-propoxy)-tetrahydro-furan-2-yl]-5-methyl-1H-pyrimidine-2,4-dione] are 5.37 and 5.00. `Cc1cn([C@H]2C[C@H](O)[C@@H](OC(C)(C)C)O2)c(=O)[nH]c1=O` [1-((2R,4S,5S)-5-tert-Butoxy-4-hydroxy-tetrahydro-furan-2-yl)-5-methyl-1H-pyrimidine-2,4-dione] gave a pIC50 in experiment [1] below 4.30.
